US11564928B1, “Cannabinoid receptor type 2 (CB2) modulators and uses thereof” (Teon Therapeutics, Inc., priority 2020, dated 2023)

These compounds were tested against human CB2 receptor (Homo sapiens (Human), UniProt P34972) (assay: CB2 receptor binding assay ([3H]CP-55,940 displacement, HEK-293 membranes)). Conditions: not given.
Experimental: The compounds were evaluated in CB1R and CB2R binding assays using membranes from HEK-293 cells transfected with cDNAs encoding the human recombinant CB1R (Bmax=[…] protein) and human recombinant CB2R (Bmax=[…] protein) (Perkin-Elmer). […] Compounds were tested following the procedure described by the cell membrane manufacturer. […] CB2R binding assays were carried out with two different buffers: incubation buffer (Tris-HCl, 50 mM; MgCl2, 5 mM; CaCl2 1 mM; BSA, 0.2% at pH 7.4) and washing buffer (Tris-HCl, 50 mM; NaCl 500 mM; BSA, 0.1% at pH 7.4). […] Assays were performed in duplicate and incubated for […] at 37° C. […] Data are analyzed and IC50 is calculated using GraphPad Prism 5 and the model “log(inhibitor) vs. response—Variable slope”. The binding affinity of the compounds is Determined by Using the Cheng and Prusoff Equation Ki=IC50/(1+[radioligand]/Kd).

Sequence of human CB2 receptor (P34972 whole entry): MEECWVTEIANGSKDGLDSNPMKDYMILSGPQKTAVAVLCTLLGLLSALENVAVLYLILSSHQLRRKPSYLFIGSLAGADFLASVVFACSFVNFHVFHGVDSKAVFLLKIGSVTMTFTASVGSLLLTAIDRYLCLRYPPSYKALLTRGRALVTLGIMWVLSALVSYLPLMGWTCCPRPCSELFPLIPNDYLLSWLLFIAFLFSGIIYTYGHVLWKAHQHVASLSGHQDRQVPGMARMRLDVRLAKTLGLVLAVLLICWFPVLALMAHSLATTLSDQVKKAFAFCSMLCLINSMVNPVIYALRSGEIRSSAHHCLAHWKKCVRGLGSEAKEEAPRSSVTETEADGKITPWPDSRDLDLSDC

Compound	IC50 [µM]
O=C(NC1CC2(CCC2)C1)c1c(O)c2cc(Br)cnc2n(CCN2CCOCC2)c1=O [Compound 4, 6-bromo-4-hydroxy-1-(2-morpholinoethyl)-2-oxo-N-(spiro[3.3]heptan-2-yl)-1,2-dihydro-1,8-naphthyridine-3-carboxamide]	0.1 to 0.999
O=C(NC1CC2(CCC2)C1)c1cc2cc(-c3ccc(OC(F)F)cn3)cnc2n(Cc2ccc(F)cc2)c1=O [Compound 43, 6-(5-(difluoromethoxy)pyridin-2-yl)-1-(4-fluorobenzyl)-2-oxo-N-(spiro[3.3]heptan-2-yl)-1,2-dihydro-1,8-naphthyridine-3-carboxamide]	0.1 to 0.999

Same assay, conditions: membranes of HEK-293 cells with human recombinant CB2R, [3H]CP-55,940; class symbols; read-out: CB2 IC50

Compound	IC50 [µM]
O=C(NC1CC2(CCC2)C1)c1c(O)c2cc(-c3ccccc3)cnc2n(CCN2CCOCC2)c1=O [Compound 14, 4-hydroxy-1-(2-morpholinoethyl)-2-oxo-6-phenyl-N-(spiro[3.3]heptan-2-yl)-1,2-dihydro-1,8-naphthyridine-3-carboxamide]	< 0.1
C[C@H](NC(=O)c1cc2cc(-c3ccc(OC(F)F)cn3)cnc2n(CCN2CCOCC2)c1=O)c1ccc(F)cc1 [Compound 49, (S)-6-(5-(difluoromethoxy)pyridin-2-yl)-N-(1-(4-fluorophenyl)ethyl)-1-(2-morpholinoethyl)-2-oxo-1,2-dihydro-1,8-naphthyridine-3-carboxamide]	0.1 to 0.999
O=C(NC12CC(C1)C2)c1c(O)c2cc(-c3ccc(F)cc3)cnc2n(CCN2CC3CC(C2)O3)c1=O [Compound 165, 1-(2-(6-oxa-3-azabicyclo[3.1.1]heptan-3-yl)ethyl)-N-(bicyclo[1.1.1]pentan-1-yl)-6-(4-fluorophenyl)-4-hydroxy-2-oxo-1,2-dihydro-1,8-naphthyridine-3-carboxamide]	> 1
O=C(NC12CC(C1)C2)c1c(O)c2cc(-c3ccc(F)cc3)cnc2n(CCN2C3COCC2C3)c1=O [Compound 166, 1-(2-(3-oxa-6-azabicyclo[3.1.1]heptan-6-yl)ethyl)-N-(bicyclo[1.1.1]pentan-1-yl)-6-(4-fluorophenyl)-4-hydroxy-2-oxo-1,2-dihydro-1,8-naphthyridine-3-carboxamide]	> 1
COc1c(C(=O)NC23CC(C2)C3)c(=O)n(CCN2CCOCC2)c2ncc(-c3ccc(F)cc3)cc12 [Compound 173, N-(bicyclo[1.1.1]pentan-1-yl)-6-(4-fluorophenyl)-4-methoxy-1-(2-morpholinoethyl)-2-oxo-1,2-dihydro-1,8-naphthyridine-3-carboxamide]	> 1
COc1ccc(-c2cnc3c(c2)c(OC)c(C(=O)NC24CC(C2)C4)c(=O)n3CCN2CCOCC2)cc1 [Compound 177, N-(bicyclo[1.1.1]pentan-1-yl)-4-methoxy-6-(4-methoxyphenyl)-1-(2-morpholinoethyl)-2-oxo-1,2-dihydro-1,8-naphthyridine-3-carboxamide]	> 1
COc1ccc(-c2cnc3c(c2)c(OC(C)C)c(C(=O)NC24CC(C2)C4)c(=O)n3CCN2CCOCC2)cc1 [Compound 180, N-(bicyclo[1.1.1]pentan-1-yl)-4-isopropoxy-6-(4-methoxyphenyl)-1-(2-morpholinoethyl)-2-oxo-1,2-dihydro-1,8-naphthyridine-3-carboxamide]	> 1
